Reference: US20240317735A1, “HYDROISOQUINOLINE OR HYDRONAPHTHYRIDINE COMPOUNDS FOR THE TREATMENT OF AUTOIMMUNE DISEASE” (Hoffmann-La Roche Inc., priority 2020, published 2024)

Target: T1, TLR9 (Homo sapiens, UniProt Q9NR96)
T1 sequence (Q9NR96 26-1032): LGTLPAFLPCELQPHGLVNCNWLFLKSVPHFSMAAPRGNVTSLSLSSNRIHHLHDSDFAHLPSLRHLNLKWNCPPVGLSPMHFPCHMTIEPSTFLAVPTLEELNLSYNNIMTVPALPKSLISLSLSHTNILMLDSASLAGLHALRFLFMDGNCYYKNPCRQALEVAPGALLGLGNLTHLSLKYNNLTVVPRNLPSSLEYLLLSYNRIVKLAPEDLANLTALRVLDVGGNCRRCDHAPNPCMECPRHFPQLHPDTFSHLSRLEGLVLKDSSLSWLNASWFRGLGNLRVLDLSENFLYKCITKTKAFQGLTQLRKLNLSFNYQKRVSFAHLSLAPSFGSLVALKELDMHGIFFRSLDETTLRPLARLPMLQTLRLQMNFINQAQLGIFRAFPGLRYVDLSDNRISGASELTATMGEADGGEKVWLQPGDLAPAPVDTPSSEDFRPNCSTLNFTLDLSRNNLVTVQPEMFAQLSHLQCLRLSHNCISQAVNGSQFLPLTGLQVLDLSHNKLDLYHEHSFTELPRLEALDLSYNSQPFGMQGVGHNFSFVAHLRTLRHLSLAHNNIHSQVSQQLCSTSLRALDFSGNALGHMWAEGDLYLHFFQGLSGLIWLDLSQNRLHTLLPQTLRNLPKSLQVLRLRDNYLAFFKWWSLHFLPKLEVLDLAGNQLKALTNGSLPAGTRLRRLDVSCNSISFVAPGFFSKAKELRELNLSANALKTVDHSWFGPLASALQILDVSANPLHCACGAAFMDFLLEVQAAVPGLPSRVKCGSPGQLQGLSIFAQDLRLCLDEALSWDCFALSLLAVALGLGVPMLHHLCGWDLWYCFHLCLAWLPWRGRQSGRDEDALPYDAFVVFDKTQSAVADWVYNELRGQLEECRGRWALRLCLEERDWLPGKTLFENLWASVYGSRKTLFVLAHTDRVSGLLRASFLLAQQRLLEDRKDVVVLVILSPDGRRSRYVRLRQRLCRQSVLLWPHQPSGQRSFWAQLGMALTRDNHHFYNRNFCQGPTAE
Assay: HEK293-Blue-hTLR-9 cells assay (SEAP reporter, ODN2006 stimulation)
Assay type: cell-based
Parameters: host or cells: HEK293 (HEK-Blue hTLR9)
Settings: HEK293-Blue-hTLR9 cells, ODN2006, 20 hrs; read-out: HEK/hTLR9 IC50
Procedure: The following tests were carried out in order to determine the activity of the compounds of formula (I) and (Ia) in HEK293-Blue-hTLR-7/8/9 cells assay.
A stable HEK293-Blue-hTLR-9 cell line was purchased from InvivoGen (Cat. #: hkb-htlr9, San Diego, California, USA). These cells were originally designed for studying the stimulation of human TLR9 by monitoring the activation of NF-κB. A SEAP (secreted embryonic alkaline phosphatase) reporter gene was placed under the control of the IFN-β minimal promoter fused to five NF-κB and AP-1-binding sites. The SEAP was induced by activating NF-κB and AP-1 via stimulating HEK-Blue hTLR9 cells with TLR9 ligands. Therefore the reporter expression was declined by TLR9 antagonist under the stimulation of a ligand, such as ODN2006 (Cat. #: tlrl-2006-1, Invivogen, San Diego, California, USA), for incubation of 20 hrs. The cell culture supernatant SEAP reporter activity was determined using QUANTI-Blue™ kit (Cat. #: rep-qb1, Invivogen, San Diego, California, USA) at a wavelength of 640 nm, a detection medium that turns purple or blue in the presence of alkaline phosphatase.
HEK293-Blue-hTLR9 cells were incubated at a density of 250,000-450,000 cells/mL in a volume of 170 μL in a 96-well plate in Dulbecco's Modified Eagle's medium (DMEM) containing 4.5 g/L glucose, 50 U/mL penicillin, […], […], 2 mM L-glutamine, 10% (v/v) heat-inactivated fetal bovine serum with addition of 20 μL test compound in a serial dilution in the presence of final DMSO at 1% and 10 μL of 20 uM ODN2006 in above DMEM, perform incubation under 37° C. in a CO2 incubator for 20 hrs. Then 20 μL of the supernatant from each well was incubated with 180 μL Quanti-blue substrate solution at 37° C. for 2 h and the absorbance was read at 620˜655 nm using a spectrophotometer.
The signaling pathway that TLR9 activation leads to downstream NF-κB activation has been widely accepted, and therefore similar reporter assay was modified for evaluating TLR9 antagonist.

Structure (SMILES)	IC50 [nM]
C[C@H]1CN(c2ccnc3c2cnn3C)Cc2ccc(OC[C@H]3CNCCN3)cc21 [Example 18, (4R)-4-methyl-2-(1-methylpyrazolo[3,4-b]pyridin-4-yl)-6-[[(2R)-piperazin-2-yl]methoxy]-3,4-dihydro-1H-isoquinoline]	111
C[C@H]1CN(c2ccnc3c2cnn3C)Cc2ccc(N3CCC(N4CC(N)C4)CC3)cc21 [Example 28, 1-[1-[(4R)-4-methyl-2-(1-methylpyrazolo[3,4-b]pyridin-4-yl)-3,4-dihydro-1H-isoquinolin-6-yl]-4-piperidyl]azetidin-3-amine]	150
C[C@H]1CN(c2ccnc3c2cnn3C)Cc2ccc(N3CCN(C(=O)C4CCCN4)CC3)cc21 (stereo partly drawn) [Example 8, pyrrolidin-2-yl-[4-[(4R)-4-methyl-2-(1-methylpyrazolo[3,4-b]pyridin-4-yl)-3,4-dihydro-1H-isoquinolin-6-yl]piperazin-1-yl]methanone]	140
C[C@H]1CN(c2ccnc3c2cnn3C)Cc2ccc(N3CC4(CNC4)CC3=O)cc21 [Example 34, 6-[(4R)-4-methyl-2-(1-methylpyrazolo[3,4-b]pyridin-4-yl)-3,4-dihydro-1H-isoquinolin-6-yl]-2,6-diazaspiro[3.4]octan-7-one]	198
C[C@H]1CN(c2ccnc3c2cnn3C)Cc2ccc(N3CC4(CCNCC4)OC3=O)cc21 [Example 26, 3-[(4R)-4-methyl-2-(1-methylpyrazolo[3,4-b]pyridin-4-yl)-3,4-dihydro-1H-isoquinolin-6-yl]-1-oxa-3,8-diazaspiro[4.5]decan-2-one]	73
C[C@H]1CN(c2ccnc3c2cnn3C)Cc2ccc(N3C[C@@]4(CCNC4)CC3=O)cc21 (single isomer, unassigned) [Example 53]	210
C[C@H]1CN(c2ccnc3c2cnn3C)Cc2ccc(OC[C@@H]3CNCCN3C)cc21 [Example 44, (4R)-4-methyl-2-(1-methylpyrazolo[3,4-b]pyridin-4-yl)-6-[[(2S)-1-methylpiperazin-2-yl]methoxy]-3,4-dihydro-1H-isoquinoline]	234
C[C@H]1CN(c2ccnc3c2cnn3C)Cc2ccc(OC[C@@H]3CNCCN3C=O)cc21 [Example 45, (2S)-2-[[(4R)-4-methyl-2-(1-methylpyrazolo[3,4-b]pyridin-4-yl)-3,4-dihydro-1H-isoquinolin-6-yl]oxymethyl]piperazine-1-carbaldehyde]	350
C[C@H]1CN(c2ccnc3c2cnn3C)Cc2ccc(N3CC4(CCNCC4)CC3=O)cc21 [Example 16, 2-[(4R)-4-methyl-2-(1-methylpyrazolo[3,4-b]pyridin-4-yl)-3,4-dihydro-1H-isoquinolin-6-yl]-2,8-diazaspiro[4.5]decan-3-one]	63
CO[C@@H]1CN(c2ccc3c(c2)[C@@H](C)CN(c2cc(C)nc4c2cnn4C)C3)C[C@H]1N [Example 23, (3R,4R)-4-methoxy-1-[(4R)-2-(1,6-dimethylpyrazolo[3,4-b]pyridin-4-yl)-4-methyl-3,4-dihydro-1H-isoquinolin-6-yl]pyrrolidin-3-amine]	115
C[C@H]1CN(c2ccnc3c2cnn3C)Cc2ccc(N3C[C@@H]4CNCCN4C3=O)cc21 [Example 25, (8aS)-2-[(4R)-4-methyl-2-(1-methylpyrazolo[3,4-b]pyridin-4-yl)-3,4-dihydro-1H-isoquinolin-6-yl]-1,5,6,7,8,8a-hexahydroimidazo[1,5-a]pyrazin-3-one]	291
C[C@H]1CN(c2ccnc3c2cnn3C)Cc2ccc(N3C[C@@H]4CCNCC4C3=O)cc21 (relative stereo) [Example 55, cis-2-[(4R)-4-methyl-2-(1-methylpyrazolo[3,4-b]pyridin-4-yl)-3,4-dihydro-1H-isoquinolin-6-yl]-3a,4,5,6,7,7a-hexahydro-1H-pyrrolo[3,4-c]pyridin-3-one]	137
C[C@H]1CN(c2ccnc3c2cnn3C)Cc2ccc(N3CC4CNC[C@H]4C3=O)cc21 (relative stereo) [Example 17, cis-5-[(4R)-4-methyl-2-(1-methylpyrazolo[3,4-b]pyridin-4-yl)-3,4-dihydro-1H-isoquinolin-6-yl]-1,2,3,3a,6,6a-hexahydropyrrolo[3,4-c]pyrrol-4-one]	217
C[C@H]1CN(c2ccnc3c2cnn3C)Cc2ccc(N3CC4(CCNC4)CC3=O)cc21 (stereo partly drawn) [Example 52, 2-[(4R)-4-methyl-2-(1-methylpyrazolo[3,4-b]pyridin-4-yl)-3,4-dihydro-1H-isoquinolin-6-yl]-2,7-diazaspiro[4.4]nonan-3-one]	117

Further lines, results first:

IC50 [nM]	Structure (SMILES)
300	Cc1cc(N2Cc3ccc(N4CCOC5(CNC5)C4)nc3[C@@H](C)C2)c2cnn(C)c2n1 [Example 70, 8-[(8S)-6-(1,6-dimethylpyrazolo[3,4-b]pyridin-4-yl)-8-methyl-7,8-dihydro-5H-1,6-naphthyridin-2-yl]-5-oxa-2,8-diazaspiro[3.5]nonane]
282	Cc1cc(N2Cc3ccc(N4CCN(C)CC4)nc3[C@@H](C)C2)c2cnn(C)c2n1 [Example 67, (8S)-6-(1,6-dimethylpyrazolo[3,4-b]pyridin-4-yl)-8-methyl-2-(4-methylpiperazin-1-yl)-7,8-dihydro-5H-1,6-naphthyridine]
129	Cc1cc(N2Cc3ccc(N4CCC(O)(CN(C)C)CC4)nc3[C@@H](C)C2)c2cnn(C)c2n1 [Example 61, 4-[(dimethylamino)methyl]-1-[(8S)-6-(1,6-dimethylpyrazolo[3,4-b]pyridin-4-yl)-8-methyl-7,8-dihydro-5H-1,6-naphthyridin-2-yl]piperidin-4-ol]
144	Cc1cc(N2Cc3cnc(O[C@@H]4C[C@H]5CNCCN5C4)cc3[C@@H](C)C2)c2cnn(C)c2n1 [Example 76, (4R)-2-(1,6-dimethylpyrazolo[3,4-b]pyridin-4-yl)-4-methyl-6-[[(7R,8aS)-1,2,3,4,6,7,8,8a-octahydropyrrolo[1,2-a]pyrazin-7-yl]oxy]-3,4-dihydro-1H-2,7-naphthyridine]
132	Cc1cc(N2Cc3ccc(N4CCNCC4)nc3[C@@H](C)C2)c2cnn(C)c2n1 [Example 66, (8S)-6-(1,6-dimethylpyrazolo[3,4-b]pyridin-4-yl)-8-methyl-2-piperazin-1-yl-7,8-dihydro-5H-1,6-naphthyridine]
144	Cc1cc(N2Cc3cnc(OCCN4CCNCC4)cc3[C@@H](C)C2)c2cnn(C)c2n1 [Example 77, (4R)-2-(1,6-dimethylpyrazolo[3,4-b]pyridin-4-yl)-4-methyl-6-(2-piperazin-1-ylethoxy)-3,4-dihydro-1H-2,7-naphthyridine]
115	Cc1cc(N2Cc3cnc(N4CCNC5(CC5)C4)cc3[C@@H](C)C2)c2cnn(C)c2n1 [Example 75, (4R)-6-(4,7-diazaspiro[2.5]octan-7-yl)-2-(1,6-dimethylpyrazolo[3,4-b]pyridin-4-yl)-4-methyl-3,4-dihydro-1H-2,7-naphthyridine]
226	C[C@H]1CN(c2ccnc3c2cnn3C)Cc2ccc(N3C[C@@H]4CCNC[C@@H]4C3=O)cc21 (single isomer, unassigned) [Example 57]
